Read-outs that look alike come from different tables or passages of the source.

We go through 4 compounds from US5565616A (priority 1994, dated 1996).

A short description of data set [1]: Sample pH before SCWO, after five-minute reactor residence time and after reactor cool down. Type of data set: physicochemical. How it is done: Fourteen tests were conducted to determine the by-product distribution of DMMP during SCWO at different oxygen concentrations in the presence of additives. Test conditions and procedures were the same as described in Example 1. Additive concentrations were based on achieving a 1:1 molar ratio of Na^+ ions to DMMP. Based on an initial concentration of DMMP of 10,000 mg/L, the initial concentrations of each additive were 3,224 mg/L for NaOH, 4,271 mg/L for Na2 CO3 and 15.4 g/L for Na2 B4 O7 (as Na2 B4 O7.10H2 O).
The pH of each sample was measured within one hour of sample collection. The presence of the additive affected the pH of the sample collected after a five minute reactor residence time only slightly. Since the pH of the initial solution had increased upon addition of the additive, it was expected that the pH of the sample collected at supercritical conditions would also increase. However, the effect was only slightly obvious due most likely to the precipitation of the additives at supercritical conditions. After reactor cool down, the pH of samples collected after cool down increased in the presence of the additive. The pH increase which occurred between the sample collected after five minutes reactor residence time and after reactor cool down was a result of the dissolution of precipitated additive. It is believed that sodium hydroxide, sodium carbonate and sodium borate dissolved after reactor cool down and neutralized the acidic solution which was observed after the five minute reactor residence time.

The text on data set [2]:
Calculations are based on the reported first-order reaction kinetic model

The conditions of data set [3]: cited from earlier work.
For data set [4] the following is noted: cited from earlier work; for Pyridine Conversion: 27.6 MPa.
[5] abbreviates: first-order oxidation, 24.6 MPa, 530-700 °C.

On to `O.O.O.O.O.O.O.O.O.O.[Na+].[Na+].[O-]B1OB2OB([O-])OB(O1)O2` [Na2 B4 O7, sodium borate], for which, in data set [1] (hydrolysis), the “pH, 5 Min. Reactor Resid. Time” value was determined as 2.8; the “pH, After Reactor Cool Down” value was determined as 7.0; the “pH, Initial” value is 9. In data set [1] (partial oxidation), the “pH, 5 Min. Reactor Resid. Time” value came out at 3.2; the “pH, After Reactor Cool Down” value is reported as 7.3; the “pH, Initial” value is 9.

`N` [ammonia]: in data set [2] (400 °C), the “Reactor Residence Time Required to Achieve 9% Conversion” value amounted to 774 min, the “Reactor Residence Time Required to Achieve 90% Conversion” value amounted to 18888 min, the “Reactor Residence Time Required to Achieve 99% Conversion” value was determined as 37775 min and the “Reactor Residence Time Required to Achieve 99.9% Conversion” value came to 56663 min. Besides, the “Reactor Residence Time Required to Achieve 99.99% Conversion” value in data set [2] (400 °C) was found to be 75551 min. In data set [2] (450 °C), the “Reactor Residence Time Required to Achieve 9% Conversion” value is given as 111 min, the “Reactor Residence Time Required to Achieve 90% Conversion” value is on record as 2710 min, the “Reactor Residence Time Required to Achieve 99% Conversion” value was 5421 min and the “Reactor Residence Time Required to Achieve 99.9% Conversion” value is listed as 8131 min. The “Reactor Residence Time Required to Achieve 99.99% Conversion” value in data set [2] (450 °C) is 10842 min. For the same compound, in data set [2] (500 °C), the “Reactor Residence Time Required to Achieve 9% Conversion” value was 20 min, the “Reactor Residence Time Required to Achieve 90% Conversion” value came to 500 min, the “Reactor Residence Time Required to Achieve 99% Conversion” value worked out at 1000 min and the “Reactor Residence Time Required to Achieve 99.9% Conversion” value is on record as 1500 min. Further, the “Reactor Residence Time Required to Achieve 99.99% Conversion” value in data set [2] (500 °C) is recorded as 2000 min. Further, in data set [2] (550 °C), the “Reactor Residence Time Required to Achieve 9% Conversion” value was determined as 5 min, the “Reactor Residence Time Required to Achieve 90% Conversion” value came to 113 min, the “Reactor Residence Time Required to Achieve 99% Conversion” value was determined as 227 min and the “Reactor Residence Time Required to Achieve 99.9% Conversion” value was found to be 340 min. For the same compound, the “Reactor Residence Time Required to Achieve 99.99% Conversion” value in data set [2] (550 °C) worked out at 453 min. In addition, in data set [2] (600 °C), the “Reactor Residence Time Required to Achieve 9% Conversion” value was found to be 0.1 min, the “Reactor Residence Time Required to Achieve 90% Conversion” value came out at 3 min, the “Reactor Residence Time Required to Achieve 99% Conversion” value is listed as 7 min and the “Reactor Residence Time Required to Achieve 99.9% Conversion” value came out at 10 min. Besides, the “Reactor Residence Time Required to Achieve 99.99% Conversion” value in data set [2] (600 °C) was determined as 13 min. The “reactor residence time required to convert 10% ammonia” value in data set [2] (below 450 °C) is listed as “at least two hours”. In addition, in data set [3] (setting [5]), the activation energy is 37.5 kcal/mol and the pre-exponential factor is 3.16e+06 s⁻¹. Also, the “temperature at which oxidation rate becomes appreciable” value in data set [3] (supercritical water) was “greater than 550 °C”.

Turning to `c1ccncc1` [pyridine], the “Pyridine Conversion” value in data set [4] (Test 513: 522 °C, 6.6 sec, 1990 mg/L, O2 0.024 mole/L) was 74%; in data set [4] (Test 516: 499 °C, 7.1 sec, 1990 mg/L, O2 0.026 mole/L), 66%; in data set [4] (Test 524: 499 °C, 7.1 sec, 3050 mg/L, O2 0.031 mole/L), 75%; in data set [4] (Test 525: 475 °C, 7.8 sec, 1990 mg/L, O2 0.029 mole/L), 25%; in data set [4] (Test 529: 451 °C, 8.8 sec, 3050 mg/L, O2 0.038 mole/L) it was 6%; in data set [4] (Test 541: 522 °C, 6.6 sec, 3050 mg/L, O2 0.027 mole/L), 94%. In addition, the “Pyridine Conversion” value in data set [4] (Test 542: 474 °C, 7.8 sec, 3050 mg/L, O2 0.035 mole/L) is 22%; in data set [4] (Test 661: 527 °C, 3.8 sec, 3530 mg/L, O2 0.010 mole/L) it was 55%; in data set [4] (Test 668: 525 °C, 3.9 sec, 3530 mg/L, O2 0.014 mole/L), 53%; in data set [4] (Test 676: 527 °C, 3.8 sec, 3530 mg/L, O2 0.020 mole/L), 68%. Moreover, the pyridine converted in data set [4] (at 524 °C (Test No. 524)) is 75%.

Take sodium hydroxide [NaOH]: in data set [1] (hydrolysis), the “pH, 5 Min. Reactor Resid. Time” value was 2.1; the “pH, After Reactor Cool Down” value amounted to 5.3; the “pH, Initial” value came out at 12.3. In data set [1] (oxidation), the “pH, 5 Min. Reactor Resid. Time” value was found to be 3.6; the “pH, After Reactor Cool Down” value amounted to 5.0; the “pH, Initial” value is reported as 12.3. In data set [1] (partial oxidation), the “pH, 5 Min. Reactor Resid. Time” value stood at 2.2; the “pH, After Reactor Cool Down” value is 6.0; the “pH, Initial” value worked out at 12.3.
